For 41 compounds, Ki results are on record in US7094909B2, “HIV protease inhibitors, compositions containing the same, their pharmaceutical uses and materials for their synthesis” (priority 2001, dated 2006).

One may read the Ki as a measure of affinity in units of concentration, obtained from inhibition or displacement. Low values mean tighter binding, high ones weaker binding.

The test deals with T1, HIV-1 protease (Q7S mutant form) (Human immunodeficiency virus type 1 group M subtype B, UniProt P04585, Q495S).
T1 construct: made in house
The experiment in a line: HIV-1 Protease RET assay. The format is biochemical. Here is the method: Ki's for the inhibitors of HIV-1 protease were determined using a resonance energy transfer (RET) assay. […] This enzyme is first partially purified as inclusion bodies from cell lysate. It is then solublized in 8M urea and passed through a Q-Sepharose column (Pharmacia) for further purification. To refold this protein, samples containing Q7S is dialyzed into 50 mM sodium phosphate pH 7.0, 50 mM NaCl, 10 mM DTT, and 10% glycerol.
The commercially available peptide substrate (Molecular Probes Cat. # H-2930) RE(EDANS)SQNYPIVQK(DABCYL)R is used to assess activity and Ki's. This peptide is cleaved quantitatively by HIV-1 Pr at the Tyr-Pro bond. The EDANS fluorophore absorbs at 340 nm and emits at 490 nm. The reaction is carried out in a 96 well plate in a total volume of 100 µL and is run for 12 minutes at 37 C under steady-state conditions with 5 µM substrate and 2 nM active dimer enzyme concentration. The literature value Km for this substrate and enzyme is 103+/−8 µM (See Matayoshi, et al., “Novel Fluorogenic Substrates for Assaying Retroviral Proteases by Resonance Energy Transfer,” Science 247, 954 (1990)). The buffer for this reaction is 0.1M sodium acetate pH 4.8, 1M NaCl, 1 mM EDTA, 5 mM dithiothreitol, 10% dimethyl sulfoxide and 1 mg/ml bovine serum albumin. Inhibition curves are fit using the Morrison tight binding equation.

Setting [1] is: Ave. Ki (nM), RET assay, Q7S enzyme, Morrison tight binding fit.

Each structure is given as a SMILES string.

In turn, `Cc1ccccc1CNC(=O)N[C@@H](Cc1ccccc1)[C@H](O)C(=O)N1CSC(C)(C)[C@H]1C(=O)NCc1ccccc1C` [Example B62, 3-{(2S,3S)-2-Hydroxy-3-[3-(2-methyl-benzyl)-ureido]-4-phenyl-butyryl}-5,5-dimethyl-thiazolidine-4-carboxylic acid 2-methyl-benzylamide] displayed a Ki under setting [1] of 4.2 nM.

For `Cc1ccccc1CNC(=O)[C@H]1N(C(=O)[C@@H](O)[C@H](Cc2ccccc2)NC(=O)C(C)CN)CSC1(C)C` (some centres unmarked), the affinity (Ki, unit inferred), expressed as Ki, was 158 nM.

`Cc1ccccc1CNC(=O)[C@H]1N(C(=O)[C@@H](O)[C@H](Cc2ccccc2)NC(=O)C2CCNCC2)CSC1(C)C` returned a Ki (Ki, unit inferred) of 45 nM.

With `CC1(C)SCN(C(=O)[C@@H](O)[C@H](Cc2ccccc2)NC(=O)c2cccc3c2CCN3)[C@@H]1C(=O)NCc1cccs1`, the Ki (Ki, unit inferred) was found to be 6.8 nM.

As for `Cc1ccccc1CNC(=O)[C@H]1N(C(=O)[C@@H](O)[C@H](Cc2ccccc2)NC(=O)/C=C/c2c(C)cccc2C)CSC1(C)C`, affinity (Ki, unit inferred) was put at a Ki of 99 nM.

Compound `Cc1ccccc1CNC(=O)[C@H]1N(C(=O)[C@@H](O)[C@H](Cc2ccccc2)NC(=O)C2=CCCCC2)CSC1(C)C` came in with a Ki (Ki, unit inferred) of 4.7 nM.

`CC1(C)SCN(C(=O)[C@@H](O)[C@H](Cc2ccccc2)NC(=O)NCc2ccccc2)[C@@H]1C(=O)NCc1ccccc1` [Example B61, 3-[(2S,3S)-3-(3-Benzyl-ureido)-2-hydroxy-4-phenyl-butyryl]-5,5-dimethyl-thiazolidine-4-carboxylic acid benzylamide]: under setting [1], the Ki came to 16.9 nM.

Turning to `Cc1ccccc1CNC(=O)[C@H]1N(C(=O)[C@@H](O)[C@H](Cc2ccccc2)NC(=O)C2CCCN(C(=O)OC(C)(C)C)C2)CSC1(C)C` (some centres unmarked), under “Ki, unit inferred”, the Ki was determined as 117 nM.

In turn, `Cc1ccccc1CNC(=O)[C@H]1N(C(=O)[C@@H](O)[C@H](Cc2ccccc2)NC(=O)CC(C)N)CSC1(C)C` (some centres unmarked) showed a Ki (Ki, unit inferred) of 108 nM.

For `COc1ccc(CNC(=O)NC(Cc2ccccc2)C(O)C(=O)N2CSC(C)(C)[C@H]2C(=O)NCc2ccc(OC)cc2)cc1` (stereo partly drawn) [Example B63, 33-{(2S,3S)-2-Hydroxy-3-[3-(4-methoxy-benzyl)-ureido]-4-phenyl-butanoyl}-5,5-dimethyl-thiazolidine-4-carboxylic acid 4-methoxy-benzylamide], the Ki under setting [1] came to 7.8 nM.

Compound `Cc1ccccc1CNC(=O)[C@H]1N(C(=O)[C@@H](O)[C@H](Cc2ccccc2)NC(=O)COc2cccc3cnccc23)CSC1(C)C` showed a Ki (Ki, unit inferred) of 21 nM.

Take `Cc1ccccc1CNC(=O)[C@H]1N(C(=O)[C@@H](O)[C@H](Cc2ccccc2)NC(=O)COc2cc(N(C)C)ccc2C)CSC1(C)C`: under “Ki, unit inferred”, the inhibition constant Ki was found to be 8.1 nM. Compared with the last compound, the Ki is about 2.6-fold lower.

Consider `Cc1cccc(C)c1CNC(=O)[C@@H]1C[C@@H]2CCCC[C@@H]2CC1C(=O)[C@@H](O)[C@H](Cc1ccccc1)NC(=O)c1cccc(O)c1C` (some centres unmarked), for which the Ki (Ki, unit inferred) came out at 83 nM.

Take `C/C(=C/c1ccccc1)C(=O)N[C@@H](Cc1ccccc1)[C@H](O)C(=O)N1CSC(C)(C)[C@H]1C(=O)NCc1ccccc1C`: the Ki (Ki, unit inferred) was found to be 5 nM. This Ki lies about 17-fold lower than the previous one.

In the case of `CC(C)(C)OC(=O)N[C@@H](Cc1ccccc1)[C@H](O)C(=O)N1CSC(C)(C)C1C(=O)NCc1ccccc1Cl` (some centres unmarked), for the setting “Ki, unit inferred”, the Ki is 20 nM.

In turn, `Cc1ccccc1CNC(=O)[C@@H]1N(C(=O)[C@@H](O)[C@H](Cc2ccccc2)NC(=O)CSc2c(C)cccc2C)CSC1(C)C` registered a Ki (Ki, unit inferred) of 422 nM.

Take `CC1(C)SCN(C(=O)[C@@H](O)[C@H](Cc2ccccc2)NC(=O)NCc2ccccc2Cl)C1C(=O)NCc1ccccc1Cl` (stereo partly drawn) [Example B46, 3-{(2S,3S)-3-[3-(2-Chloro-benzyl)-ureido]-2-hydroxy-4-phenyl-butyryl}-5,5-dimethyl-thiazolidine-4-carboxylic acid 2-chloro-benzylamide]: the affinity under setting [1] corresponds to a Ki of 93 nM. That is a double-digit nanomolar value.

Where the note is “Ki, unit inferred”, `Cc1ccccc1CNC(=O)[C@H]1N(C(=O)[C@@H](O)[C@H](Cc2ccccc2)NC(=O)OC2CCC3CCCC3C2)CSC1(C)C` (some centres unmarked) had a Ki of 148 nM.

`Cc1ccccc1CNC(=O)[C@H]1N(C(=O)[C@@H](O)[C@H](Cc2ccccc2)NC(=O)Cc2c(F)cccc2F)CSC1(C)C` returned a Ki (Ki, unit inferred) of 72 nM.

Compound `C=CC(CC)OC(=O)N[C@@H](Cc1ccccc1)[C@H](O)C(=O)N1CSC(C)(C)[C@H]1C(=O)NCc1ccccc1C` (some centres unmarked) displayed a Ki (Ki, unit inferred) of 92 nM.

In the case of `Cc1c(O)cccc1C(=O)N[C@@H](Cc1ccccc1)[C@H](O)C(=O)N1CC(F)(F)C[C@H]1C(=O)NCc1c(F)cccc1Cl` [Example C14, (S)-4,4-Difluoro-1-[(2S,3S)-2-hydroxy-3-(3-hydroxy-2-methyl-benzoylamino)-4-phenyl-butyryl]-pyrrolidine-2-carboxylic acid 2-chloro-6-fluoro-benzylamide], under setting [1], the Ki amounted to 2.5 nM.

Under “Ki, unit inferred”, `Cc1ccccc1CNC(=O)C1N(C(=O)[C@@H](O)C(Cc2ccccc2)NC(=O)OCc2cccnc2)CSC1(C)C` (some centres unmarked) displayed a Ki of 27 nM.

`Cc1ccc(CNC(=O)NC(Cc2ccccc2)C(O)C(=O)N2CSC(C)(C)[C@H]2C(=O)NCc2ccccc2C)c(C)c1` (stereo in doubt) [Example B69, 3-{3-[3-(2,4-Dimethyl-benzyl)-ureido]-2-hydroxy-4-phenyl-butyryl}-5,5-dimethyl-thiazolidine-4-carboxylic acid 2-methyl-benzylamide] had a Ki under setting [1] of 7.7 nM.

Regarding `Cc1ccccc1CNC(=O)[C@H]1N(C(=O)[C@@H](O)[C@H](Cc2ccccc2)NC(=O)Oc2ccccc2)CSC1(C)C`, for the setting “Ki, unit inferred”, the Ki was 368 nM.

On to `Cc1c(O)cccc1C(=O)N[C@@H](Cc1ccccc1)[C@H](O)C(=O)N1CSC(C)(C)[C@H]1C(=O)NCc1nc2ccccc2[nH]1` [Example A60, (R)-3-[(2S,3S)-2-Hydroxy-3-(3-hydroxy-2-methyl-benzoylamino)-4-phenyl-butyryl]-5,5-dimethyl-thiazolidine-4-carboxylic acid (1H-benzoimidazol-2-ylmethyl)-amide], for which, under setting [1], affinity was put at a Ki of 66.6 nM. This counts as double-digit nanomolar.

Compound `Cc1ccccc1CNC(=O)[C@@H]1C[C@@H]2CCCC[C@@H]2CN1C(=O)[C@@H](O)[C@H](Cc1ccccc1)NC(=O)c1cccc(O)c1C` [Example C49, (3S,4aS,8aS)-2-((2S,3S)-2-Hydroxy-3-{[1-(3-hydroxy-2-methyl-phenyl)-methanoyl]-amino}-4-phenyl-butanoyl)-decahydro-isoquinoline-3-carboxylic acid 2-methyl-benzylamide] came in with a Ki under setting [1] of 150 nM.

Under setting [1], `Cc1ccccc1CNC(=O)NC(Cc1ccccc1)C(O)C(=O)N1CSC(C)(C)[C@H]1C(=O)NCc1ccncc1` (stereo partly drawn) [Example B66, 3-{(2S,3S)-2-Hydroxy-3-[3-(2-methyl-benzyl)-ureido]-phenyl-butyryl}-5,5-dimethyl-thiazolidine-4-carboxylic acid (pyridin-4-ylmethyl)-amide] returned a Ki of 5.2 nM.

In turn, `Cc1ccccc1CNC(=O)[C@@H]1N(C(=O)[C@@H](O)[C@H](Cc2ccccc2)NC(=O)c2cccc(O)c2C)CSC12CCCCC2` gave a Ki (Ki, unit inferred) of 11 nM. This lies in the double-digit nanomolar range.

Regarding `Cc1ccccc1CCC(=O)C1N(C(=O)[C@@H](O)C(Cc2ccccc2)NC(=O)C2CCC2)CSC1(C)C` (some centres unmarked), the affinity (Ki, unit inferred), expressed as Ki, was 4.4 nM.

As to `CCNC(=O)C1c2ccccc2CN1C(=O)[C@@H](O)[C@H](Cc1ccccc1)NC(=O)c1c(C)noc1C` (some centres unmarked), where the note is “Ki, unit inferred”, the Ki came out at 84 nM.

In turn, `Cc1ccccc1CNC(=O)C1N(C(=O)[C@@H](O)C(Cc2ccccc2)NC(=O)/C=C/c2c(Cl)cccc2Cl)CSC1(C)C` (some centres unmarked) had a Ki (Ki, unit inferred) of 11.9 nM.

`Cc1ccccc1CNC(=O)[C@@H]1CSCN1C(=O)[C@@H](O)[C@H](Cc1ccccc1)NC(=O)CCc1c(C)cccc1C` showed a Ki (Ki, unit inferred) of 20 nM.

`Cc1ccccc1CNC(=O)[C@H]1N(C(=O)C(O)C(Cc2ccccc2)NC(=O)NCc2ccc(Br)cc2)CSC1(C)C` (stereo in doubt) [Example B73, 3-{3-[3-(4Bromo-benzyl)-ureido]-2-hydroxy-4phenyl-butyryl}-5,5-dimethyl-thiazolidine-4-carboxylic acid 2-methyl-benzylamide]: the Ki under setting [1] is 13 nM.

For `Cc1ccccc1CNC(=O)[C@@H]1CC(F)(F)CN1C(=O)[C@@H](O)[C@H](Cc1ccccc1)NC(=O)c1cccn1C`, the Ki (Ki, unit inferred) was 59 nM.

Turning to `Cc1ccccc1CNC(=O)[C@H]1N(C(=O)[C@@H](O)[C@H](Cc2ccccc2)NC(=O)CN)CSC1(C)C`, the Ki (Ki, unit inferred) worked out at 110 nM.

In the case of `CC(C)=CCNC(=O)[C@@H]1CC(F)(F)CN1C(=O)[C@@H](O)[C@H](Cc1ccccc1)NC(=O)c1cccc(O)c1C` [Example C9, (S)-4,4-Difluoro-1-((2S,3S)-2-hydroxy-3-{[1-(3-hydroxy-2-methyl-phenyl)-methanoyl]-amino}-4-phenyl-butanoyl)-pyrrolidine-2-carboxylic acid (3-methyl-but-2-enyl)-amide], the affinity under setting [1], expressed as Ki, was 6.3 nM.

As for `Cc1ccccc1CNC(=O)[C@H]1N(C(=O)[C@@H](O)[C@H](Cc2ccccc2)NC(=O)C(C)(C)CN)CSC1(C)C`, for the setting “Ki, unit inferred”, the Ki came to 18.7 nM. That is a double-digit nanomolar value.

In turn, `Cc1ccccc1CCC(=O)C1N(C(=O)[C@@H](O)C(Cc2ccccc2)NC(=O)NCc2ccc(Cl)cc2)CSC1(C)C` (some centres unmarked) yielded a Ki (Ki, unit inferred) of 8.2 nM.

Compound `CCCNC(=O)C1CC(F)(F)CN1C(=O)[C@@H](O)[C@H](Cc1ccccc1)NC(=O)c1cccc(OC(C)=O)c1C` (some centres unmarked) showed a Ki (Ki, unit inferred) of 85 nM.

`Cc1ccccc1CNC(=O)C1N(C(=O)[C@@H](O)[C@H](Cc2ccccc2)NC(=O)c2ccc3ccncc3c2)CSC1(C)C` (some centres unmarked) yielded a Ki (Ki, unit inferred) of 3.4 nM.

`Cc1ccccc1CNC(=O)C1N(C(=O)[C@@H](O)C(Cc2ccccc2)NC(=O)c2cnc3ccccc3c2)CSC1(C)C` (some centres unmarked) had a Ki (Ki, unit inferred) of 18.1 nM.
